The record followed here is patent US6344440B1, “Antisecretory factor peptides regulating pathological permeability changes” (Rural Patent Svenska AB, priority 1995, dated 2002).

The subject of series [1] is toxin A from Clostridium difficile-induced inflammation and fluid secretion in the intestinal mucosa. Briefly: Toxin A-induced intestinal inflammation and fluid secretion, rat intestinal loop model. It counts as in vivo. The note with it: for toxin A-induced fluid secretion: p<0.01. The protocol:
The effect of rAF on inflammation in the intestinal mucosa was also tested in the rat intestinal loop model. […] Half of the rats in each group received 100 ng of rAF intravenously 30 sec prior to the challenge; the other half received PBS buffer as control. After killing the rat, the loops was dissected out, and the middle 2-3 cm part of the loops were frozen on dry ice. The frozen specimens were then sectioned in 8 μm thick sections by use of a Leica cryostat. […] Alkaline phosphatases are expressed by the intestinal epithelial cells and the staining allows an assessment and of the integrity of the intestinal epithelium.

Series [2] concerns CT-induced extravascular penetration of Evans blue in the plexus choroideus. The note with it: rat, in vivo, iv.
The test system of series [3] is cholera toxin-induced fluid secretion in rat intestine. The note with it: in vivo.
Series [4] deals with CT-induced extravascular penetration of Evans blue in the small intestine. The following applies: rat, in vivo, iv.
The test system of series [5] is cholera toxin-induced Evans blue permeation of intestinal tissue. The following applies: rat, in vivo.
Another series can be described thus: Toxicity of rAF in rats. It counts as in vivo, rat. The protocol: Toxicity—In order to test the toxicity of rAF it was injected in a high dose, 50 μg per rat.

On to IVCHSKTR (Human) [P1], for which, in series [1] (0.5 μg replacing the rAF protein), the “effect on toxin A-induced intestinal inflammation and fluid secretion” value was “achieved the same effect”. Further, the “state of intestinal mucosa (alkaline phosphatase staining, FIG. 9)” value in series [1] (0.5 μl of P1 prior to toxin challenge) is “a conserved and normal intestinal mucosa”. The “CT-induced extravascular penetration of Evans blue, plexus choroideus” value in series [2] is recorded as “inhibits the CT-induced extravascular penetration of Evans blue”. In series [3], the “ED50 (amount causing halfmaximal inhibition)” value is given as 5 pmol, the active dose result is recorded as “less than 1 ng” and the “activity (inhibition of cholera secretion)” value is reported as “active”. Moreover, the “CT-induced extravascular penetration of Evans blue, small intestine” value in series [4] is recorded as “inhibits the CT-induced extravascular penetration of Evans blue”.
Consider “N3: recombinant peptide, amino acids 36-51 of SEQ ID NO:2, expressed from basepairs 168-215 (VCHSKTRSNPENNVGL; Human)”, for which, in series [3], the “ED50 (amount causing halfmaximal inhibition)” value turned out to be 3 pmol.
Consider “P3: peptide of amino acids 35-46 of SEQ ID NO:2, solid phase synthesis (IVCHSKTRSNPE; Human)”, for which, in series [3], the “ED50 (amount causing halfmaximal inhibition)” value is recorded as 7 pmol and the “activity (inhibition of cholera secretion)” value is listed as “active”.
For the molecule “N2: recombinant peptide, amino acids 36-80 of SEQ ID NO:2, expressed from basepairs 168-301 (VCHSKTRSNPENNVGLITLANDCEVLTTLTPDTGRILSKLHTVQP; Human)”, in series [3], the “ED50 (amount causing halfmaximal inhibition)” value is 6 pmol.
Consider VCHSKT (Human) [P2], for which, in series [3], the “effect on the toxin response” value was “no effect”.

B1: N1: recombinant peptide, amino acids 1-80 of SEQ ID NO:2, expressed from basepairs 63-301 (protein)
chain: MVLESTMVCVDNSEYMRNGDFLPTRLQAQQDAVNIVCHSKTRSNPENNVGLITLANDCEVLTTLTPDTGRILSKLHTVQP
modifications: Human
In the case of B1, in series [3], the “ED50 (amount causing halfmaximal inhibition)” value is 4 pmol.

B2: rAF: recombinant human antisecretory factor, SEQ ID No. 2, thrombin-cleaved pure AF-1 protein expressed in E. coli (protein)
chain: MVLESTMVCVDNSEYMRNGDFLPTRLQAQQDAVNIVCHSKTRSNPENNVGLITLANDCEVLTTLTPDTGRILSKLHTVQPKGKITFCTGIRVAHLALKHRQGKNHKMRIIAFVGSPVEDNEKDLVKLAKRLKKEKVNVDIINFGEEEVNTEKLTAFVNTLNGKDGTGSHLVTVPPGPSLADALISSPILAGEGGAMLGLGASDFEFGVDPSADPELALALRVSMEEQRHAGGGARRAARASAAEAGIATTGTEDSDDALLKMTISQQEFGRTGLPDLSSMTEEEQIAYAMQMSLQGAEFGQAESADIDASSAMDTSEPAKEEDDYDVMQDPEFLQSVLENLPGVDPNNEAIRNAMGSLPPRPPRTARRTRRRKTRSETGGKG
modifications: Human
With B2, the “damage of the intestinal mucosa (shedding, necrosis, bleeding)” value in series [1] (100 ng i.v. 30 sec prior to 0.5 μg toxin A, 2.5 and 5 h) is reported as “no shedding, necrosis or bleeding”. Besides, in series [1] (100 ng i.v. 30 sec prior to 0.5 μg toxin A, after 2.5 h, control 199±4), the “toxin A-induced fluid secretion” value is 137 ± 5 mg/cm. Moreover, the “toxin A-induced fluid secretion” value in series [1] (100 ng i.v. 30 sec prior to 0.5 μg toxin A, after 6 h, control 421±3) was found to be 203 ± 6 mg/cm. In series [3], the “inhibition of intestinal secretion compared to control animals” value is on record as “significant inhibition” and the “reduction of the fluid secretion compared to controls” value is “significant reduction”. Besides, in series [5], the “% increase of EB-konc” value is recorded as 0 NS %, the “CT-induced increase of EB extracted from the intestinal tissue” value is listed as “prevent this increase” and the “EB/g int. tissue × 10^−07” value came to 29.6 ± 1.5 EB/g int. tissue × 10^−07. Further, the toxic reaction entry in “Toxicity of rAF in rats” (50 μg per rat, observation period of one week) was “No obvious toxic reaction”. For the same molecule, the toxic reactions entry in the series “Toxicity of rAF in rats” (rats given 100 fold higher doses than that causing half-maximal inhibition) is recorded as “no obvious toxic reactions”.
